Results as given in ChEMBL document CHEMBL4811240, “Discovery of N-substituted sulfamoylbenzamide derivatives as novel inhibitors of STAT3 signaling pathway based on Niclosamide” (Eur J Med Chem, 2021).
Active and inactive are the calls of the source. The calls are words filed in the database; no cut-off is given here.

What was measured:
[1] = biological target: Signal transducer and activator of transcription 3 (Homo sapiens) (UniProt P40763); assay: Inhibition of STAT3 promoter activity in human MDA-MB-231 cells at 0.1 uM incubated for 24 hrs by dual luciferase reporter assay; type: cell-based
Signal transducer and activator of transcription 3 (Homo sapiens), sequence (P40763 whole entry): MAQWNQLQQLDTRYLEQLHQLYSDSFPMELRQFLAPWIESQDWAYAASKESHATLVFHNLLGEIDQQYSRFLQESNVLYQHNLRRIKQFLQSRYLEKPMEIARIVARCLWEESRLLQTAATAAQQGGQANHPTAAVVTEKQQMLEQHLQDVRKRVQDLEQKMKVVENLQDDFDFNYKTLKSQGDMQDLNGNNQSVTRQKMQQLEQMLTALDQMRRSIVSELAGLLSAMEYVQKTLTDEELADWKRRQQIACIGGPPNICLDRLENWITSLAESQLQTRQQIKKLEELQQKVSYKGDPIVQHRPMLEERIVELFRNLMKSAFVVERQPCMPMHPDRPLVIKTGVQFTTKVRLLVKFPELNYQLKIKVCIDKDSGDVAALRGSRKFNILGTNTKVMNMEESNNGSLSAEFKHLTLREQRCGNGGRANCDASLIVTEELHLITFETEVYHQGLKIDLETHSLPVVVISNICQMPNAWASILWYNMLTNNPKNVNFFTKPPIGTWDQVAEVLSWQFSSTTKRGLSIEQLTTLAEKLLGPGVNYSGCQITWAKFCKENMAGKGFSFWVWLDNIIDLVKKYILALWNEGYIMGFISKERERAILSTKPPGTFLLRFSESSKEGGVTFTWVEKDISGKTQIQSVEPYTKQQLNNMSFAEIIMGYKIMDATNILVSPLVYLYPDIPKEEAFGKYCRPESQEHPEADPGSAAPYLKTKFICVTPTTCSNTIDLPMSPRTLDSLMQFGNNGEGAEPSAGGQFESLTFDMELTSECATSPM

[2] = biological target: Signal transducer and activator of transcription 3 (Homo sapiens) (UniProt P40763); assay: Inhibition of STAT3 promoter activity in human MDA-MB-231 cells at 1 uM incubated for 24 hrs by dual luciferase reporter assay; type: cell-based
MDA-MB-231 [3] = assay: Induction of apoptosis in human MDA-MB-231 cells assessed as increase in cleaved caspase 9 expression at 1 to 10 uM incubated for 24 hrs by Western blot analysis; type: functional, cell-based; settings: dose 1-10 µM
MDA-MB-231 [4] = assay: Induction of apoptosis in human MDA-MB-231 cells assessed as apoptotic cells at 2.5 uM measured after 24 hrs by annexinV-FITC/propidium iodide staining based flow cytometry analysis (reference value: 2.49%); type: functional
MDA-MB-231 [5] = assay: Induction of apoptosis in human MDA-MB-231 cells assessed as apoptotic cells at 5 uM measured after 24 hrs by annexinV-FITC/propidium iodide staining based flow cytometry analysis (reference value: 2.49%); type: functional

`CC(C)(C)OC(=O)c1ccc(NC(=O)c2ccc(Cl)c(S(N)(=O)=O)c2)cc1` was tested, and the inhibition [1] was 24.7%, the inhibition [2] was 87.9% and the Activity (MDA-MB-231 [3]) was “Active”. For the same molecule, the Activity (MDA-MB-231 [4]) was 16.01% and the Activity (MDA-MB-231 [5]) was 23.14%.
